The text below walks through data of patent publication US20250049025A1, “SURFACTANTS FOR USE IN AGRICULTURAL FORMULATIONS” (AdvanSix Resins & Chemicals LLC, priority 2023, published 2025).

Where two headings read alike, the source gives them in different places.

Data set [1] concerns P. aeruginosa (9027). Kind of data set: Minimum inhibitory concentration (MIC) test, serial dilution. Format: cell-based, Pseudomonas aeruginosa. The note with it: 24 hours, serial dilution 1.7 fold, 400 ppm max. From the text:
(§1) Surfactants of the present disclosure have been shown in a standard protocol to assess antimicrobial activities called minimum inhibitory concentration (MIC) tests.
(§2) The antimicrobial properties of surfactants were examined using known methods and standard protocols, and various types of microorganisms as treatment targets. More specifically a minimum inhibitory concentration (MIC) test protocol was applied, using serial dilution method, giving concentration-dependent microorganism growth inhibition measurements against gram positive (e.g., Streptococcus mutans, which is anaerobic, and Staphylococcus aureus, which is usually aerobic but can grow also anaerobically), gram negative (e.g., Escherichia coli, which is anaerobic, or Pseudomonas aeruginosa, which is aerobic).
(§3) Bacteria were propagated overnight in a suitable growth medium, which was a Tryptic Soy Broth. Prior to testing, the concentrations of the test organisms were established using a spectrophotometer that can measure optical density. Those bacterial samples were then diluted to about 1E3 to 1E4 CFU/mL. […]
(§4) Test measurements were made on replicate 96-well plates, and reported as the rounded whole number average of the determined MIC. […] Measurement variability was then reported based on the determined average in the form of MIC+/−.

The subject of data set [2] is E. coli (8739). The data set is described as above. Format: cell-based, Escherichia coli. The note with it: 24 hours, serial dilution 1.7 fold.
Description: as §1, §2, §3, §4

Data set [3] can be described thus: Critical micelle concentration and minimum surface tension from surface tension versus concentration in water (Wilhelmy plate method). Format: physicochemical. The note with it: for critical micelle concentration (CMC) / plateau value of minimum surface tension: in water; for interfacial activity / surfactant properties (in words): judged from CMC and minimum surface tension. The source says: These properties may be measured and described by various methods. One method by which surfactants may be described is by the molecule's critical micelle concentration (CMC). CMC may be defined as the concentration of a surfactant at which micelles form, and above which all additional surfactant is incorporated into micelles.
As surfactant concentration increases, surface tension decreases. Once the surface is completely overlaid with surfactant molecules, micelles begin to form. This point represents the CMC, as well as the minimum surface tension. Further addition of surfactant will not further affect the surface tension. CMC may therefore be measured by observing the change in surface tension as a function of surfactant concentration. One such method for measuring this value is the Wilhemy plate method. A Wilhelmy plate is usually a thin iridium-platinum plate attached to a balance by a wire and placed perpendicularly to the air-liquid interface. The balance is used to measure the force exerted on the plate by wetting. This value is then used to calculate the surface tension (γ) according to Equation 1: […]
wherein I is equal to the wetted perimeter (2w+2d, in which w and d are the plate thickness and width, respectively) and cos θ, the contact angle between the liquid and the plate, is assumed to be 0 in the absence of an extant literature value.
Nuclear magnetic resonance (NMR) spectroscopy was performed on a Bruker 500 MHz spectrometer. The critical micelle concentration (CMC) was determined by the Wilhelmy plate method at 23° C. with a tensiometer (DCAT 11, DataPhysics Instruments GmbH) equipped with a Pt—Ir plate. Dynamic surface tension was determined with a bubble pressure tensiometer (Krüss BP100, Krüss GmbH), at 23° C. Contact angle was determined with the optical contact angle goniometer (OCA 15 Pro, DataPhysics GmbH) equipped with a digital camera.

Data set [4] concerns S. mutans (25715). Kind of data set: Minimum inhibitory concentration (MIC) test, serial dilution. Format: cell-based, Streptococcus mutans.
Description: as §1, §2
(§5) Bacteria were propagated overnight in a suitable growth medium, which was a Tryptic Soy Broth. Prior to testing, the concentrations of the test organisms were established using a spectrophotometer that can measure optical density. Those bacterial samples were then diluted to about 1E3 to 1E4 CFU/mL. Thereafter, […] of the bacterial cultures thus prepared were inoculated into test wells of a 96-well plate, each containing suitable growth media, which was Tryptic Soy Agar, and once the bacterial cultures were inoculated, these wells were then treated with the test specimen, serially diluted, incubated at a temperature of 37+/−1° C. and relative humidity of not less than 90% for about 24+/−1 hour.
(§6) Test surfactants were prepared into dilution series. All dilutions were conducted serially using a multichannel pipetter into 96-well microtiter plates.
(§7) The MIC was then used to determine the approximate concentration of the test surfactant at which there was inhibition of bacterial growth. […]
as §4

The subject of data set [5] is S. aureus (6538). The data set is described as above. In kind it is cell-based, Staphylococcus aureus.
Description: as §1, §2, §5, §6, §7, §4

Setting [6] is: 24 hours, serial dilution 1.7 fold, 20 ppm max.

Regarding `C[N+](C)(CCCO)CCCCCC(=O)NCCC[Si](O[Si](C)(C)C)(O[Si](C)(C)C)O[Si](C)(C)C` [Surfactant 7, 6-((3-(1,1,1,5,5,5-hexamethyl-3-((trimethylsilyl)oxy)trisiloxan-3-yl)propyl)amino)-N-(3-hydroxypropyl)-N,N-dimethyl-6-oxohexan-1-aminium iodide], the minimum inhibitory concentration (MIC) in data set [1] (Pseudomonas aeruginosa, read-out: MIC) stood at 81 µg/mL. In data set [2] (Escherichia coli, 400 ppm max, read-out: MIC), the minimum inhibitory concentration (MIC) amounted to 81 µg/mL. For the same compound, in data set [3] (23° C.), the “critical micelle concentration (CMC)” value is reported as “about 0.4568 mmol” and the “plateau value of minimum surface tension” value was “about 20.61 mN/m”. In data set [3], the “interfacial activity / surfactant properties (in words)” value was “outstanding interfacial activity”.
Take `C#CC[N+](C)(C)CCCCCC(=O)NCCC[Si](O[Si](C)(C)C)(O[Si](C)(C)C)O[Si](C)(C)C` [Surfactant 4, 6-((3-(1,1,1,5,5,5-hexamethyl-3-((trimethylsilyl)oxy)trisiloxan-3-yl)propyl)amino)-N,N-dimethyl-6-oxo-N-(prop-2-yn-1-yl)hexan-1-aminium bromide]: in data set [3] (23° C.), the “critical micelle concentration (CMC)” value was “about 0.2419 mmol” and the “plateau value of minimum surface tension” value was “about 20.54 mN/m”. Further, in data set [3], the “interfacial activity / surfactant properties (in words)” value was “outstanding interfacial activity”.
On the same counts, the results for `COCCOCC[N+](C)(C)CCCCCC(=O)NCCC[Si](O[Si](C)(C)C)(O[Si](C)(C)C)O[Si](C)(C)C` [Surfactant 5, 6-((3-(1,1,1,5,5,5-hexamethyl-3-((trimethylsilyl)oxy)trisiloxan-3-yl)propyl)amino)-N-(2-(2-methoxyethoxy)ethyl)-N,N-dimethyl-6-oxohexan-1-aminium bromide] are “about 0.4622 mmol”, “about 20.40 mN/m” and “outstanding interfacial activity”.
Consider `C[N+](C)(CCCCCC(=O)NCCC[Si](O[Si](C)(C)C)(O[Si](C)(C)C)O[Si](C)(C)C)Cc1ccccc1` [Surfactant 1, N-benzyl-6-((3-(1,1,1,5,5,5-hexamethyl-3-((trimethylsilyl)oxy)trisiloxan-3-yl)propyl)amino)-N,N-dimethyl-6-oxohexan-1-aminium bromide], for which the “plateau value of minimum surface tension” value in data set [3] (23° C.) is recorded as “around 20.67 mN/m”. Moreover, in data set [3] (pH 8, 23° C.), the “critical micelle concentration (CMC)” value is listed as “about 9.883 mmol”. Also, the “interfacial activity / surfactant properties (in words)” value in data set [3] is given as “outstanding interfacial activity”.
`C[N+](C)(CCCCCC(=O)NCCC[Si](O[Si](C)(C)C)(O[Si](C)(C)C)O[Si](C)(C)C)CC(=O)O` [Comparative Surfactant, N-(carboxymethyl)-6-((3-(1,1,1,5,5,5-hexamethyl-3-((trimethylsilyl)oxy)trisiloxan-3-yl)propyl)amino)-N,N-dimethyl-6-oxohexan-1-aminium bromide, reference compound]: in data set [3] (23° C.), the “critical micelle concentration (CMC)” value is reported as “about 17.28 mmol” and the “plateau value of minimum surface tension” value is reported as “about 29.16 mN/m”. Besides, the “interfacial activity / surfactant properties (in words)” value in data set [3] is “inferior surfactant properties”.
Take `C=CC[N+](C)(C)CCCCCC(=O)NCCC[Si](O[Si](C)(C)C)(O[Si](C)(C)C)O[Si](C)(C)C` [Surfactant 3, N-allyl-6-((3-(1,1,1,5,5,5-hexamethyl-3-((trimethylsilyl)oxy)trisiloxan-3-yl)propyl)amino)-N,N-dimethyl-6-oxohexan-1-aminium iodide]: in data set [3] (23° C.), the “critical micelle concentration (CMC)” value is “about 1.3599 mmol” and the “plateau value of minimum surface tension” value is reported as “about 20.67 mN/m”. The “interfacial activity / surfactant properties (in words)” value in data set [3] is on record as “outstanding interfacial activity”.
Taken in the same sequence, the figures for `C[N+](C)(CCCCCC(=O)NCCC[Si](O[Si](C)(C)C)(O[Si](C)(C)C)O[Si](C)(C)C)CCC[N+](C)(C)CCCCCC(=O)NCCC[Si](O[Si](C)(C)C)(O[Si](C)(C)C)O[Si](C)(C)C` [Surfactant 10, N^1,N^3-bis(6-((3-(1,1,1,5,5,5-hexamethyl-3-((trimethylsilyl)oxy)trisiloxan-3-yl)propyl)amino)-6-oxohexyl)-N^1,N^1,N^3,N^3-tetramethylpropane-1,3-diaminium dibromide] were “about 0.0631 mmol”, “about 22.12 mN/m” and “has interfacial activity”.
In the case of `CCCCCCCCCCCCCC[N+](C)(C)Cc1ccccc1.[Cl-]` [ADBAC, reference compound], the minimal inhibitory concentration (MIC) in data set [4] (setting [6]) is 7 +/− 3 ppm; in data set [1], 48 +/− 20 ppm; in data set [2] (20 ppm max), 16 +/− 7 ppm; in data set [5] (setting [6]), 7 +/− 3 ppm.
Regarding `CCOC(=O)C[N+](C)(C)CCCCCC(=O)NCCC[Si](O[Si](C)(C)C)(O[Si](C)(C)C)O[Si](C)(C)C` [Surfactant 2, N-(2-ethoxy-2-oxoethyl)-6-((3-(1,1,1,5,5,5-hexamethyl-3-((trimethylsilyl)oxy)trisiloxan-3-yl)propyl)amino)-N,N-dimethyl-6-oxohexan-1-aminium bromide], in data set [3] (23° C.), the “critical micelle concentration (CMC)” value is listed as “about 0.2171 mmol” and the “plateau value of minimum surface tension” value is reported as “around 20.36 mN/m”. Besides, in data set [3], the “interfacial activity / surfactant properties (in words)” value is recorded as “outstanding interfacial activity”.
Consider `CCOP(=O)(CCC[N+](C)(C)CCCCCC(=O)NCCC[Si](O[Si](C)(C)C)(O[Si](C)(C)C)O[Si](C)(C)C)OCC` [Surfactant 6, N-(3-(diethoxyphosphoryl)propyl)-6-((3-(1,1,1,5,5,5-hexamethyl-3-((trimethylsilyl)oxy)trisiloxan-3-yl)propyl)amino)-N,N-dimethyl-6-oxohexan-1-aminium bromide], for which, in data set [4] (Streptococcus mutans, 24 h), 81 µg/mL was the least that counted as inhibitory (MIC). Further, the MIC in data set [5] (Staphylococcus aureus, 24 h) amounted to 138 µg/mL. In data set [3] (23° C.), the “critical micelle concentration (CMC)” value was “about 0.3989 mmol” and the “plateau value of minimum surface tension” value is “about 20.48 mN/m”. Moreover, the “interfacial activity / surfactant properties (in words)” value in data set [3] was “outstanding interfacial activity”.
`C[N+](C)(CCCCCC(=O)O)CCCCCC(=O)NCCC[Si](O[Si](C)(C)C)(O[Si](C)(C)C)O[Si](C)(C)C` [Surfactant 9, N-(5-carboxypentyl)-6-((3-(1,1,1,5,5,5-hexamethyl-3-((trimethylsilyl)oxy)trisiloxan-3-yl)propyl)amino)-N,N-dimethyl-6-oxohexan-1-aminium bromide]: the MIC in data set [4] (Streptococcus mutans, 24 hours, serial dilution 1.7 fold, 400 ppm max, read-out: MIC) is 81 µg/mL; in data set [5] (Staphylococcus aureus, 24 hours, serial dilution 1.7 fold, 400 ppm max, read-out: MIC), 138 µg/mL. In data set [3] (23° C.), the “critical micelle concentration (CMC)” value was “about 0.2237 mmol”. In addition, the “plateau value of minimum surface tension” value in data set [3] (23° C.) is reported as “about 20.52 mN/m”. In data set [3], the “interfacial activity / surfactant properties (in words)” value was “excellent interfacial activity”.
With `C[N+](C)(CCO)CCCCCC(=O)NCCC[Si](O[Si](C)(C)C)(O[Si](C)(C)C)O[Si](C)(C)C` [Surfactant 8, 6-((3-(1,1,1,5,5,5-hexamethyl-3-((trimethylsilyl)oxy)trisiloxan-3-yl)propyl)amino)-N-(2-hydroxyethyl)-N,N-dimethyl-6-oxohexan-1-aminium iodide], in data set [3] (23° C.), the “critical micelle concentration (CMC)” value was “about 0.9986 mmol” and the “plateau value of minimum surface tension” value is reported as “about 20.41 mN/m”. The “interfacial activity / surfactant properties (in words)” value in data set [3] is given as “outstanding interfacial activity”.
